Measured values published in paper PMC9774241, “Associating Biological Activity and Predicted Structure of Antimicrobial Peptides from Amphibians and Insects” (Antibiotics, 2022).
≈ marks a conversion by molar mass, not a printed value. Read-outs that look alike come from different tables or passages of the source. Residues, ends and D or L forms follow the SMILES beside them. No end group written: not given here.

How the values were obtained:
Type in all cases: cell-based
[1] = test system: Escherichia coli ATCC 25922
Protocol: (§1) Bacteria were grown overnight at 37 °C in Mueller-Hinton Broth (MHB; Sigma-Aldrich, St. Louis. MO, USA) in a shaking incubator and aliquoted into cryovials with a 50% glycerol solution in a 1:1 ratio. No additives were added to the MHB during the growth of bacterial isolates. Glycerol stocks were stored at −80 °C.
(§2) The antimicrobial activity of the putative AMPs was determined by a broth microdilution assay as described by the Clinical and Laboratory Standards Institute, with the published adaptations for testing of cationic peptides. Escherichia coli 25922 and Staphylococcus aureus 29213 isolates were purchased from the American Type Culture Collection (ATCC; Manassas, VA, USA). A human clinical isolate of Salmonella enterica serovar Enteritidis was provided by the BC Centre for Disease Control. Bacteria from stocks stored at −80 °C were streaked onto nonselective Columbia blood agar with 5% sheep blood (Oxoid) and incubated overnight at 37 °C. Next, 2–4 colonies were streaked onto a new agar plate to ensure uniform health of colonies used in the broth microdilution assay. Isolated colonies were suspended in MHB and the optical density was measured with a spectrophotometer to create an initial inoculum concentration of approximately 1 × 10^8 cfu/mL. The inoculum was diluted 1:250 to a final concentration of 2–8 × 10^5 cfu/mL, which was confirmed by performing a Total Viability Count (TVC). The TVC consisted of plating a 1:1000 dilution of the final inoculum on nonselective media and was also used to confirm the health and purity of the inoculum in each trial.
(§3) Lyophilized 80 µg peptide aliquots synthesized by GenScript (Piscataway, NJ, USA) were resuspended to 1.28 mg/mL with UltraPure water (Thermo Fisher Scientific, Waltham, MA, USA) and serially diluted in polypropylene 96-well microtiter plates (Greiner Bio-One #650261, Kremsmünster, Austria) from 128 down to 0.5 µg/mL. Two columns per plate were reserved for growth and sterility controls. Inoculum was added to the wells containing the peptide and the growth control. Plates were incubated for 20–24 h at 37 °C. The minimum inhibitory concentration (MIC) was determined as the lowest peptide concentration where there was no visible bacterial growth.

[2] = test system: Salmonella enterica serovar Enteritidis (human clinical isolate)
Protocol: as §1, §2, §3

[3] = test system: Staphylococcus aureus ATCC 29213
Protocol: as §1, §2, §3

[4] = broth microdilution in MHB, peptide 128 down to 0.5 µg/mL, 20–24 h at 37 °C, no visible growth, range of three independent experiments

| Molecule | MIC, E. coli ATCC 25922 [1, 4] | MIC, Salmonella Enteritidis [2, 4] | MIC, S. aureus ATCC 29213 [3, 4] | MIC, E. coli ATCC 25922 ([1]; ATCC 25922) | MIC, Salmonella Enteritidis ([2]; serovar Enteritidis (human clinical isolate)) | MIC, S. aureus ATCC 29213 ([3]; ATCC 29213) |
| --- | --- | --- | --- | --- | --- | --- |
| CC[C@H](C)[C@H](NC(=O)[C@H](CCCCN)NC(=O)[C@H](CC(=O)O)NC(=O)[C@H](CC(C)C)NC(=O)[C@@H](NC(=O)CNC(=O)[C@@H](NC(=O)[C@H](CO)NC(=O)[C@H](Cc1ccccc1)NC(=O)[C@H](CC(N)=O)NC(=O)[C@H](CCCCN)NC(=O)[C@@H](NC(=O)CNC(=O)[C@H](CCC(=O)O)NC(=O)[C@H](CCCCN)NC(=O)[C@@H](NC(=O)[C@@H](NC(=O)[C@@H](NC(=O)[C@H](Cc1c[nH]c2ccccc12)NC(=O)[C@H](CC(C)C)NC(=O)CN)[C@@H](C)O)[C@@H](C)O)[C@@H](C)CC)C(C)C)C(C)C)C(C)C)C(=O)N[C@@H](CCCNC(=N)N)C(=O)N[C@@H](CS)C(=O)N[C@@H](CCCCN)C(=O)N[C@H](C(=O)N[C@H](C(=O)NCC(=O)NCC(=O)N[C@@H](CS)C(=O)O)[C@@H](C)O)[C@@H](C)CC [PeNi14] (H-GLWTTIKEGVKNFSVGVLDKIRCKITGGC-OH; N-terminus and C-terminus assumed) | 4 to 8 µg/mL | 32 µg/mL (≈ 10.2 µM) | 16 to 32 µg/mL | – | – | – |
| CC[C@H](C)[C@H](NC(=O)[C@H](CO)NC(=O)[C@@H]1CCCN1C(=O)[C@H](CC(C)C)NC(=O)[C@@H](NC(=O)[C@H](CCCCN)NC(=O)[C@H](C)NC(=O)[C@H](C)NC(=O)[C@H](CC(C)C)NC(=O)CNC(=O)[C@H](C)NC(=O)[C@@H](NC(=O)[C@@H](NC(=O)[C@@H]1CCCN1C(=O)[C@H](CC(C)C)NC(=O)[C@@H](N)Cc1ccccc1)C(C)C)C(C)C)C(C)C)C(=O)N[C@H](C(=O)N[C@@H](CS)C(=O)N[C@@H](C)C(=O)N[C@H](C(=O)N[C@H](C(=O)N[C@@H](CCCCN)C(=O)N[C@@H](CCCCN)C(=O)N[C@@H](CS)C(=O)O)[C@@H](C)O)C(C)C)[C@@H](C)CC [RaCa15] (H-FLPVVAGLAAKVLPSIICAVTKKC-OH; N-terminus and C-terminus assumed) | 8 to 16 µg/mL | > 128 µg/mL | 4 to 8 µg/mL | – | – | – |
| CC(C)C[C@H](NC(=O)CN)C(=O)N[C@@H](CC(C)C)C(=O)NCC(=O)N[C@@H](CCCCN)C(=O)N[C@H](C(=O)N[C@@H](CC(C)C)C(=O)NCC(=O)N[C@H](C(=O)NCC(=O)N[C@@H](CCCCN)C(=O)N[C@@H](CCCCN)C(=O)N[C@H](C(=O)N[C@@H](CC(C)C)C(=O)N[C@@H](CS)C(=O)NCC(=O)N[C@H](C(=O)N[C@@H](CO)C(=O)NCC(=O)N[C@@H](CCCNC(=N)N)C(=O)N[C@@H](CS)C(=O)O)C(C)C)C(C)C)C(C)C)C(C)C [RaOm4] (H-GLLGKVLGVGKKVLCGVSGRC-OH; N-terminus and C-terminus assumed) | 4 to 8 µg/mL | 32 µg/mL (≈ 15.7 µM) | 64 to 128 µg/mL | – | – | – |
| CC[C@H](C)[C@H](NC(=O)[C@H](CO)NC(=O)[C@@H]1CCCN1C(=O)[C@H](CC(C)C)NC(=O)[C@@H](NC(=O)[C@H](CCCCN)NC(=O)[C@H](C)NC(=O)[C@H](C)NC(=O)[C@H](CC(C)C)NC(=O)CNC(=O)[C@H](C)NC(=O)[C@@H](NC(=O)[C@@H](NC(=O)[C@@H]1CCCN1C(=O)[C@H](CC(C)C)NC(=O)[C@H](Cc1ccccc1)NC(=O)[C@H](CCCNC(=N)N)NC(=O)[C@H](CCC(N)=O)NC(=O)[C@H](CCC(=O)O)NC(=O)[C@@H](N)CCC(=O)O)C(C)C)C(C)C)C(C)C)C(=O)N[C@H](C(=O)N[C@@H](CS)C(=O)N[C@@H](C)C(=O)N[C@H](C(=O)N[C@H](C(=O)N[C@@H](CCCCN)C(=O)N[C@@H](CCCCN)C(=O)N[C@@H](CS)C(=O)O)[C@@H](C)O)C(C)C)[C@@H](C)CC [RaSy2] (H-EEQRFLPVVAGLAAKVLPSIICAVTKKC-OH; N-terminus and C-terminus assumed) | 64 µg/mL (≈ 21.4 µM) | > 128 µg/mL | 64 to 128 µg/mL | – | – | – |
| AFVRILCYCCPRRIKRR [TeRu2, rAMPage-discovered AMP, Temnothorax rugatulus] | 64 to 128 µg/mL | > 128 µg/mL | 128 µg/mL | – | – | – |
| AGLQFPVGRIHRHLKTR [PeNi6] | > 128 µg/mL | > 128 µg/mL | > 128 µg/mL | – | – | – |
| ATAWKVPPGLQPIRPIRIRPLCGNDKS [PeNi16] | > 128 µg/mL | > 128 µg/mL | > 128 µg/mL | – | – | – |
| AVLSFVHKLFLNFLHVDTSKGKCRATLQ [TeRu3] | > 128 µg/mL | > 128 µg/mL | > 128 µg/mL | – | – | – |
| DNKWQNVHFHRSAVTGPTSFSFSHK [AnFl1] | – | – | – | > 128 µg/mL | > 128 µg/mL | > 128 µg/mL |
| FIKTQVLKHLVAGVRVARGLDWKWR [CaCa2] | 8 µg/mL | > 128 µg/mL | 64 to 128 µg/mL | – | – | – |
| FILHAKKTRSAK [VeSi1] | > 128 µg/mL | > 128 µg/mL | > 128 µg/mL | – | – | – |
| FLPSSPWNEGTYVLKKLKS [PeNi15] | > 128 µg/mL | > 128 µg/mL | > 128 µg/mL | – | – | – |
| FPFPFGRR [RaSi2] | > 128 µg/mL | > 128 µg/mL | > 128 µg/mL | – | – | – |
| GAFVLWGPTPRPRRR [DiLo1] | 128 µg/mL | > 128 µg/mL | > 128 µg/mL | – | – | – |
| GAHKEVFKRDTALTKEAAKKAKK [ApMe2] | > 128 µg/mL | > 128 µg/mL | > 128 µg/mL | – | – | – |
| GFMDTAKNVAKNVAVTLLDNLKCKITKAC [OdMa13, rAMPage-discovered AMP, Odorrana margaretae] | 64 to 128 µg/mL | > 128 µg/mL | > 128 µg/mL | – | – | – |

| Molecule | MIC, E. coli ATCC 25922 [1, 4] | MIC, Salmonella Enteritidis [2, 4] | MIC, S. aureus ATCC 29213 [3, 4] | MIC, E. coli ATCC 25922 ([1]; ATCC 25922) | MIC, Salmonella Enteritidis ([2]; serovar Enteritidis (human clinical isolate)) | MIC, S. aureus ATCC 29213 ([3]; ATCC 29213) |
| --- | --- | --- | --- | --- | --- | --- |
| GIFGGLLKEGKKIACGLSGLC [OdTo3, rAMPage-discovered AMP, Odorrana tormota] | 32 µg/mL | > 128 µg/mL | > 128 µg/mL | – | – | – |
| GIFSLIKGAAK [LeBo1] | > 128 µg/mL | > 128 µg/mL | > 128 µg/mL | – | – | – |
| GIFSLIKGAAKVVAKGLG [PeNi3, rAMPage-discovered AMP, Pelophylax nigromaculatus] | 16 to 32 µg/mL | 64 to 128 µg/mL | 64 to 128 µg/mL | – | – | – |
| GIFSLIKGAAKVVAKGLGK [RaOm3] | 8 to 16 µg/mL | 32 to 64 µg/mL | 64 µg/mL | – | – | – |
| GILRLVTRRFRFSPTNLNRYTVARLVSGVP [BoAr6] | 32 µg/mL | 64 µg/mL | 64 to 128 µg/mL | – | – | – |
| GILRSLGWIQMPRSRRRHR [AnFl2] | 16 to 32 µg/mL | 128 µg/mL | > 128 µg/mL | – | – | – |
| GILSGLLGAGKKIVC [OdMa4] | 8 to 16 µg/mL | 32 µg/mL | > 128 µg/mL | – | – | – |
| GILSGLLGAGKKIVCGLSGMC [RaOm2, rAMPage-discovered AMP, Rana omeimontis] | 64 to 128 µg/mL | > 128 µg/mL | > 128 µg/mL | – | – | – |
| GIYTGRLLPVYIPQPRPPHPRLRR [ApCe1] | 4 to 8 µg/mL | 16 to 32 µg/mL | > 128 µg/mL | – | – | – |
| GLISGILGAGKKVLC [OdMa9] | 64 to 128 µg/mL | 128 µg/mL | > 128 µg/mL | – | – | – |
| GLLGKVLGVGKKVLC [PeNi4, rAMPage-discovered AMP, Pelophylax nigromaculatus] | 8 to 16 µg/mL | 4 to 8 µg/mL | 4 to 8 µg/mL | – | – | – |
| GLVGKLVKGGLKLIGHVANG [RaSi1] | 8 to 16 µg/mL | > 128 µg/mL | 64 to 128 µg/mL | – | – | – |
| GSSSRSCRCIRLSRLSSKRT [NaVi4] | > 128 µg/mL | > 128 µg/mL | > 128 µg/mL | – | – | – |
| GWGLINIKIPPVLHKVSVPLVSKR [ApMe3] | > 128 µg/mL | > 128 µg/mL | > 128 µg/mL | – | – | – |
| ISIKEALEHSFFHTVPRKWCKKH [PoSn1] | 64 µg/mL | > 128 µg/mL | > 128 µg/mL | – | – | – |
